Test results taken from the supplement of paper PMC10307832.

Key:
Assay in all cases: relative viability (nuclei count vs DMSO), 5 days (fraction); higher = more cells survive
[1] = compound: C1=CC=C(C(=C1)C2=CC=C(C=C2)C3=CSC4=C3C(=C(C(=O)N4)C#N)O)O + CC(=O)c1c(C)c2cnc(Nc3ccc(N4CCNCC4)cn3)nc2n(C2CCCC2)c1=O [Palbociclib] (partner 0.5 µM)
Procedure, shortened: (§1)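 One day after seeding in 1536-well plates, lung cancer cell lines were dosed by pin tool. Dosing was either single-drug or a fixed anchor-drug dose plus five library-drug doses (not always all listed) in √10 steps. After 5 days, nuclei were stained in one fix-and-stain step and counted on 4× images, and relative viability is the nuclei count of treated wells over that of vehicle wells, given as the median of duplicate plates.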

[2] = compound: C1=CC=C(C(=C1)C2=CC=C(C=C2)C3=CSC4=C3C(=C(C(=O)N4)C#N)O)O + C[C@]1(O)C[C@@H](c2nc(-c3ccc4ccc(-c5ccccc5)nc4c3)c3c(N)nccn32)C1 [Linsitinib] (partner 1 µM)
Procedure, shortened: as §1

[3] = compound: C1=CC=C(C(=C1)C2=CC=C(C=C2)C3=CSC4=C3C(=C(C(=O)N4)C#N)O)O + NC(=O)Nc1cc(-c2cccc(F)c2)sc1C(=O)N[C@H]1CCCNC1 [AZD7762] (partner 0.2 µM)
Procedure, shortened: as §1

[4] = compound: O=C(CCCCCCNC(=O)c1cnc(N(c2ccccc2)c2ccccc2)nc1)NO [Ricolinostat] + COc1cccc2cc(-c3nc([C@H]4CC[C@H](C(=O)O)CC4)n4ncnc(N)c34)[nH]c12 [OSI-027] (partner 0.5 µM)
Procedure, shortened: as §1

[5] = compound: O=C(CCCCCCNC(=O)c1cnc(N(c2ccccc2)c2ccccc2)nc1)NO [Ricolinostat] + Cc1nc(NC(=O)N2CCC[C@H]2C(N)=O)sc1-c1ccnc(C(C)(C)C(F)(F)F)c1 [Alpelisib] (partner 2 µM)
Procedure, shortened: as §1

NCI-H1792 showed a relative viability ([1]; first compound 0.253 µM) of 0.65, a relative viability ([1]; first compound 2.53 µM) of 0.895 and a relative viability ([1]; first compound 8 µM) of 0.355. It also gave a relative viability ([2]; first compound 0.253 µM) of 0.436, a relative viability ([2]; first compound 0.8 µM) of 0.542 and a relative viability ([2]; first compound 2.53 µM) of 0.474. For the same cell line, the relative viability ([2]; first compound 8 µM) was 0.317, the relative viability ([3]; first compound 0.253 µM) was 0.953 and the relative viability ([3]; first compound 0.8 µM) was 0.329. For the same cell line, the relative viability ([3]; first compound 2.53 µM) was 0.551, the relative viability ([3]; first compound 8 µM) was 0.532 and the relative viability ([4]; first compound 0.253 µM) was 0.709. It also gave a relative viability ([4]; first compound 0.8 µM) of 0.693, a relative viability ([4]; first compound 2.53 µM) of 0.759 and a relative viability ([5]; first compound 0.08 µM) of 0.55. The relative viability ([5]; first compound 0.253 µM) was 0.661, the relative viability ([5]; first compound 0.8 µM) was 0.67 and the relative viability ([5]; first compound 2.53 µM) was 0.59.
